From patent US20260022142A1, “MACROCYCLIC IMMUNOMODULATORS” (Bristol-Myers Squibb Company, priority 2022, published 2026) come the findings set out here.

Numbered stars: 1 amine (or outer) side, 2 acyl side, 3 side chain; on linkers, the order of the positions; unused ones are H or OH. Bridge positions count the residues as written; N and C are the ends. Square brackets hold non-standard residues; d marks the D form. Peptide text beside a SMILES is read from it. * marks the point of attachment. ξ: configuration not given here. Trp(βS-Me) = C[C@@H](c1c[nH]c2ccccc12)[C@H](N)C(=O)O; Phe(3,4-Cl2) = N[C@@H](Cc1ccc(Cl)c(Cl)c1)C(=O)O; Phe(3-CF3) = N[C@@H](Cc1cccc(C(F)(F)F)c1)C(=O)O; Ala(morpholin-4-yl) = N[C@@H](CN1CCOCC1)C(=O)O; Phe(4-COOH) = N[C@@H](Cc1ccc(C(=O)O)cc1)C(=O)O; Bip = N[C@@H](Cc1ccc(-c2ccccc2)cc1)C(=O)O; NH(CH2)14COOH = O=C(O)CCCCCCCCCCCCCCN*; Phe(3-Me) = Cc1cccc(C[C@H](N)C(=O)O)c1; NH(CH2)12COOH = O=C(O)CCCCCCCCCCCCN*; Val(3-OH) = CC(C)(O)[C@H](N)C(=O)O; 4Pal = N[C@@H](Cc1ccncc1)C(=O)O; Cha = N[C@@H](CC1CCCCC1)C(=O)O; Cit = NC(=O)NCCC[C@H](N)C(=O)O; Thr(3ξ) = CC(O)[C@H](N)C(=O)O; CH2COCH2 = O=C(C[*:1])C[*:2]; PEG4 = NCCOCCOCCOCCOCCC(=O)O; 12Ado = NCCCCCCCCCCCC(=O)O; Carboxymethyl = O=C(O)C*; Orn = NCCC[C@H](N)C(=O)O; Aun = NCCCCCCCCCCC(=O)O; Dab = NCC[C@H](N)C(=O)O; Dap = NC[C@H](N)C(=O)O; AEEA = NCCOCCOCC(=O)O; Ac3c = NC1(C(=O)O)CC1

The target of the assay is T1, PD-1/PD-L1 interaction (PE-labeled human PD-L1-Ig binding to Jurkat cell line over-expressing human PD-1) (Homo sapiens, UniProt Q15116).
T1 construct: expressed in transfected cells; host or cells: Jurkat
T1 sequence (Q15116 25-288): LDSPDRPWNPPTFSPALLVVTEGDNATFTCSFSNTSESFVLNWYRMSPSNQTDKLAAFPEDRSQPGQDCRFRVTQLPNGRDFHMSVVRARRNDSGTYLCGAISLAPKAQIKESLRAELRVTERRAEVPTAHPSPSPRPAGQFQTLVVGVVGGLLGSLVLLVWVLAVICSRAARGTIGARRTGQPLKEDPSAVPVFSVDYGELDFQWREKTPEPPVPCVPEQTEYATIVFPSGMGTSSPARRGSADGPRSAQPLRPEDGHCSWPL
Put plainly: Jurkat-PD-1 Cell Binding High-Content Screening Assay (CBA). The format is cell-based. Particulars: Jurkat cell line over-expressing human PD-1; PE-labeled PD-L1-Ig 20 nM final; read-out: Jurkat hPD1-PDL1 IC50. Summed up: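 Jurkat cells over-expressing human PD-1 (8×10^3 per well, DMEM/10% FCS) preincubated with compound 2 h at 37° C, then PE-labeled human PD-L1-Ig (20 nM final) added for 1 h. Cells fixed with paraformaldehyde, Hoechst-stained, and bound fluorescence quantified by high-content imaging.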
As for `CC(C)C[C@H]1NC(=O)[C@H](CCCN)NC(=O)[C@H](C(C)C)NC(=O)[C@H](Cc2ccc(-c3ccccc3)cc2)NC(=O)[C@H](C(C)C)NC(=O)[C@H](Cc2c[nH]c3ccccc23)NC(=O)[C@H](CC(=O)O)NC(=O)[C@H](Cc2ccc(C(=O)O)cc2)NC(=O)[C@H](CCCNC(=N)N)NC(=O)CSC[C@@H](C(=O)NCC(=O)NCCOCCOCC(=O)N[C@@H](CCCN)C(=O)NCCCCCCCCCCC(=O)O)NC(=O)[C@H](CN)NC(=O)[C@H](C(C)C)NC(=O)[C@H](CC2CCCCC2)NC(=O)[C@H](CCN)NC1=O` [Compound 3239] ({CH2CO}-R[Phe(4-COOH)]DWV[Bip]V[Orn][dL][Dab][Cha]V[Dap]CG[AEEA][Orn][Aun]-OH; thioether N-14), the IC50 was found to be 11.4 nM.

In the case of `CC(C)C[C@H]1NC(=O)[C@H](CCCN)NC(=O)[C@H](Cc2ccc(C(=O)O)cc2)NC(=O)[C@H](Cc2ccc(-c3ccccc3)cc2)NC(=O)[C@H](Cc2ccc(C(=O)O)cc2)NC(=O)[C@H](Cc2cccc(C(F)(F)F)c2)NC(=O)[C@H](CC(=O)O)NC(=O)[C@H](Cc2ccc(OCC(=O)O)cc2)NC(=O)[C@H](CN2CCOCC2)NC(=O)CSC[C@@H](C(=O)N[C@@H](CCN)C(=O)NCCOCCOCCOCCOCCC(=O)NCCCCCCCCCCCCCCC(=O)O)NC(=O)[C@H](CC(=O)O)NC(=O)[C@H](C(C)(C)O)NC(=O)[C@H](CC2CCCCC2)NC(=O)[C@H](CCN)NC1=O` [Compound 2948] ({CH2CO}-[Ala(morpholin-4-yl)]Y(Carboxymethyl)D[Phe(3-CF3)][Phe(4-COOH)][Bip][Phe(4-COOH)][Orn][dL][Dab][Cha][Val(3-OH)]DC[Dab][PEG4]-{NH(CH2)14COOH}; thioether N-14), the 50% inhibitory concentration (IC50) amounted to 352 nM. With `CC(C)C[C@H]1NC(=O)[C@H](CCCN)NC(=O)[C@H](C(C)C)NC(=O)[C@H](Cc2ccc(-c3ccccc3)cc2)NC(=O)[C@H](C(C)C)NC(=O)[C@H](Cc2c[nH]c3ccccc23)NC(=O)[C@H](CC(=O)O)NC(=O)[C@H](Cc2ccc(OCC(=O)O)cc2)NC(=O)[C@H](CN)NC(=O)CSC[C@@H](C(=O)N[C@@H](CCCN)C(=O)NCCOCCOCC(=O)NCCCCCCCCCCC(=O)O)NC(=O)[C@H](CO)NC(=O)[C@H](C(C)C)NC(=O)[C@H](CC2CCCCC2)NC(=O)[C@H](C(C)O)NC1=O` (stereo partly drawn) [Compound 3192] ({CH2CO}-[Dap]Y(Carboxymethyl)DWV[Bip]V[Orn][dL][Thr(3ξ)][Cha]VSC[Orn][AEEA][Aun]-OH; thioether N-14) the figure was 18.2 nM. With `CC(C)C[C@H]1NC(=O)[C@H](CCCN)NC(=O)[C@H](Cc2ccc(O)cc2)NC(=O)[C@H](Cc2ccc(-c3ccccc3)cc2)NC(=O)[C@H](Cc2ccc(O)cc2)NC(=O)[C@H](Cc2c[nH]c3ccccc23)NC(=O)[C@H](CC(=O)O)NC(=O)[C@H](Cc2ccc(OCC(=O)O)cc2)NC(=O)[C@H](Cc2ccc(OCC(=O)O)cc2)NC(=O)CSC[C@@H](C(=O)N[C@@H](CCN)C(=O)NCCCCCCCCCCC(=O)O)NC(=O)[C@H](CN)NC(=O)[C@H](Cc2ccc(O)cc2)NC(=O)[C@H](CC2CCCCC2)NC(=O)[C@H](CCN)NC1=O` [Compound 2514] ({CH2CO}-Y(Carboxymethyl)Y(Carboxymethyl)DWY[Bip]Y[Orn][dL][Dab][Cha]Y[Dap]C[Dab][Aun]-OH; thioether N-14), the IC50 stood at 49.7 nM.

As to `Cc1cccc(C[C@@H]2NC(=O)[C@H](CC(=O)O)NC(=O)[C@H](Cc3ccc(OCC(=O)O)cc3)NC(=O)[C@H](Cc3ccncc3)NC(=O)CSC[C@@H](C(=O)N[C@@H](CCN)C(=O)NCCOCCOCC(=O)NCCCCCCCCCCCCC(=O)O)NC(=O)[C@H](CO)NC(=O)[C@H](C(C)(C)O)NC(=O)[C@H](CC3CCCCC3)NC(=O)[C@H](CCN)NC(=O)[C@@H](CC(C)C)NC(=O)[C@H](CCCN)NC(=O)[C@H](Cc3ccc(OCC(=O)O)cc3)NC(=O)[C@H](Cc3ccc(-c4ccccc4)cc3)NC(=O)[C@H](Cc3ccc(OCC(=O)O)cc3)NC2=O)c1` [Compound 2251] ({CH2CO}-[4Pal]Y(Carboxymethyl)D[Phe(3-Me)]Y(Carboxymethyl)[Bip]Y(Carboxymethyl)[Orn][dL][Dab][Cha][Val(3-OH)]SC[Dab][AEEA]-{NH(CH2)12COOH}; thioether N-14), the IC50 amounted to 10.5 nM.

On to `CC(C)C[C@H]1NC(=O)[C@H](CCCN)NC(=O)[C@H](Cc2ccc(OCC(=O)O)cc2)NC(=O)[C@H](Cc2ccc(-c3ccccc3)cc2)NC(=O)[C@H](Cc2ccc(OCC(=O)O)cc2)NC(=O)[C@H]([C@@H](C)c2c[nH]c3ccccc23)NC(=O)[C@H](CC(=O)O)NC(=O)[C@H](Cc2ccc(OCC(=O)O)cc2)NC(=O)[C@H](CCCNC(=N)N)NC(=O)CSC[C@@H](C(=O)NC2(C(=O)NCCCCCCCCCCC(=O)O)CC2)NC(=O)[C@H]([C@@H](C)O)NC(=O)[C@H](C(C)C)NC(=O)[C@H](CC2CCCCC2)NC(=O)[C@H](CCN)NC1=O` [Compound 2135] ({CH2CO}-RY(Carboxymethyl)D[Trp(βS-Me)]Y(Carboxymethyl)[Bip]Y(Carboxymethyl)[Orn][dL][Dab][Cha]VTC[Ac3c][Aun]-OH; thioether N-14), for which the 50% inhibitory concentration (IC50) came out at 68.8 nM. Take `Cc1cccc(C[C@@H]2NC(=O)[C@H](CC(=O)O)NC(=O)[C@H](Cc3ccc(OCC(=O)O)cc3)NC(=O)[C@H](CN)NC(=O)CSC[C@@H](C(=O)N[C@@H](C)C(=O)N[C@@H](CCCCN)C(=O)NCC(=O)NCCCCCCCCCCC(=O)O)NC(=O)[C@H]([C@@H](C)O)NC(=O)[C@H](C(C)C)NC(=O)[C@H](CC3CCCCC3)NC(=O)[C@H](CCN)NC(=O)[C@@H](CC(C)C)NC(=O)[C@H](CCCN)NC(=O)[C@H](CCCNC(N)=O)NC(=O)[C@H](Cc3ccc(-c4ccccc4)cc3)NC(=O)[C@H](C(C)C)NC2=O)c1` [Compound 1066] ({CH2CO}-[Dap]Y(Carboxymethyl)D[Phe(3-Me)]V[Bip][Cit][Orn][dL][Dab][Cha]VTCAKG[Aun]-OH; thioether N-14): the 50% inhibitory concentration (IC50) came to 13.9 nM.

Turning to `Cc1cccc(C[C@@H]2NC(=O)[C@H](CC(=O)O)NC(=O)[C@H](Cc3ccc(OCC(=O)O)cc3)NC(=O)[C@H](CN)NC(=O)CSC[C@@H](C(=O)N[C@@H](CCN)C(=O)NCCCCCCCCCCC(=O)O)NC(=O)[C@H]([C@@H](C)O)NC(=O)[C@H](C(C)C)NC(=O)[C@H](CC3CCCCC3)NC(=O)[C@H](CCN)NC(=O)[C@@H](CC(C)C)NC(=O)[C@H](CCCN)NC(=O)[C@H](CCCNC(N)=O)NC(=O)[C@H](Cc3ccc(-c4ccccc4)cc3)NC(=O)[C@H](C(C)C)NC2=O)c1` [Compound 1064] ({CH2CO}-[Dap]Y(Carboxymethyl)D[Phe(3-Me)]V[Bip][Cit][Orn][dL][Dab][Cha]VTC[Dab][Aun]-OH; thioether N-14), the IC50 worked out at 16.3 nM. Turning to `CC(C)C[C@H]1NC(=O)[C@H](CCCN)NC(=O)[C@H](CCC(=O)O)NC(=O)[C@H](Cc2ccc(-c3ccccc3)cc2)NC(=O)[C@H](C(C)C)NC(=O)[C@H](Cc2c[nH]c3ccccc23)NC(=O)[C@H](CC(=O)O)NC(=O)[C@H](Cc2ccc(C(=O)O)cc2)NC(=O)[C@H](Cc2ccc(OCC(=O)O)cc2)NC(=O)CSC[C@@H](C(=O)NCC(=O)NCCOCCOCC(=O)N[C@@H](CCCN)C(=O)NCCCCCCCCCCCC(=O)O)NC(=O)[C@H](CO)NC(=O)[C@H](C(C)C)NC(=O)[C@H](CC2CCCCC2)NC(=O)[C@H](CCN)NC1=O` [Compound 3062] ({CH2CO}-Y(Carboxymethyl)[Phe(4-COOH)]DWV[Bip]E[Orn][dL][Dab][Cha]VSCG[AEEA][Orn][12Ado]-OH; thioether N-14), the IC50 is 33 nM. `CC(=O)COc1ccc(C[C@@H]2NC(=O)[C@H](Cc3cccc(C)c3)NC(=O)[C@H](CC(=O)O)NC(=O)[C@H](Cc3ccc(OCC(=O)O)cc3)NC(=O)[C@H](CCCNC(=N)N)NC(=O)CSC[C@@H](C(=O)N[C@@H](CCN)C(=O)NCCCCCCCCCCC(=O)O)NC(=O)[C@H]([C@@H](C)O)NC(=O)[C@H](C(C)C)NC(=O)[C@H](CC3CCCCC3)NC(=O)[C@H](CCN)NC(=O)[C@@H](CC(C)C)NC(=O)[C@H](CCCN)NC(=O)[C@H](Cc3ccncc3)NC(=O)[C@H](Cc3ccc(-c4ccccc4)cc3)NC2=O)cc1` [Compound 2114] ({CH2CO}-RY(Carboxymethyl)D[Phe(3-Me)]Y(CH2COCH2)[Bip][4Pal][Orn][dL][Dab][Cha]VTC[Dab][Aun]-OH; thioether N-14): the IC50 amounted to 10 nM.

In the case of `CC(C)C[C@H]1NC(=O)[C@H](CCCN)NC(=O)[C@H](Cc2ccc(O)cc2)NC(=O)[C@H](Cc2ccc(-c3ccccc3)cc2)NC(=O)[C@H](Cc2ccc(OCC(=O)O)cc2)NC(=O)[C@H](Cc2ccc(Cl)c(Cl)c2)NC(=O)[C@H](CC(=O)O)NC(=O)[C@H](Cc2ccc(OCC(=O)O)cc2)NC(=O)[C@H](CN)NC(=O)CSC[C@@H](C(=O)N[C@@H](CCN)C(=O)NCCOCCOCC(=O)NCCCCCCCCCCC(=O)O)NC(=O)[C@H](CCCN)NC(=O)[C@H](C(C)C)NC(=O)[C@H](CC2CCCCC2)NC(=O)[C@H](CCN)NC1=O` [Compound 1307] ({CH2CO}-[Dap]Y(Carboxymethyl)D[Phe(3,4-Cl2)]Y(Carboxymethyl)[Bip]Y[Orn][dL][Dab][Cha]V[Orn]C[Dab][AEEA][Aun]-OH; thioether N-14), the half-inhibitory concentration (IC50) is 49.6 nM. `CC(C)C[C@@H]1NC(=O)[C@H](Cc2c[nH]c3ccccc23)NC(=O)[C@H](CC(=O)O)NC(=O)[C@H](Cc2ccc(C(=O)O)cc2)NC(=O)[C@H](C(C)O)NC(=O)CSC[C@@H](C(=O)N[C@@H](CC(N)=O)C(=O)N[C@@H](CCN)C(=O)NCCCCCCCCCCCCCCC(=O)O)NC(=O)[C@H](CO)NC(=O)[C@H](C(C)C)NC(=O)[C@H](CC2CCCCC2)NC(=O)[C@H](CCN)NC(=O)[C@@H](CC(C)C)NC(=O)[C@H](CCCN)NC(=O)[C@H](C(C)C)NC(=O)[C@H](Cc2ccc(-c3ccccc3)cc2)NC1=O` (stereo partly drawn) [Compound 3023] ({CH2CO}-[Thr(3ξ)][Phe(4-COOH)]DWL[Bip]V[Orn][dL][Dab][Cha]VSCN[Dab]-{NH(CH2)14COOH}; thioether N-14): the half-inhibitory concentration (IC50) was determined as 184 nM.

For orientation: IC50 means the concentration at which inhibition is half-maximal.
